Test results as given in patent US20200271640A1, “METHOD FOR SCREENING COMPOUNDS THAT MODULATE THE ACTIVITY OF THE ELECTRON TRANSPORT CHAIN” (IMG Pharma Biotech, S.L., priority 2017, published 2020).
“Also recorded” adds a separate entry of the source.

Assays:
[1] = tested on: mitochondrial supercomplexes; assay: DAB oxidation activity assay of complexes and supercomplexes of the mitochondrial ETC in rat heart MMP; details: for effect on NADH evoked inhibition (inhibition period) of DAB oxidation, supercomplex activity: in presence of NADH; for inhibition of DAB oxidation by the substrate itself: substrate alone; for effect on NADPH consumption rate / NADPH-inhibition period of DAB oxidation: in presence of NADPH; for effect on succinate evoked decrease in DAB oxidation: in presence of succinate
Protocol: The crude homogenate was subjected to a 1000×g for 8 min, and the resultant supernatant was centrifuged again at 18,000×g for 15 min (4° C., Microfuge® 22R centrifuge, Beckman Coulter). The pellet was washed in 20 volumes of homogenized buffer using an Ultra-Turrax® (T10 basic, IKA) and re-centrifuged under the same conditions. The homogenate aliquots were stored at −80 ° C. until they were used. Protein concentration was measured by the Bradford method and adjusted to the required concentrations.
(§5) The assay buffer consisted of a phosphate buffer (pH 7,4), EDTA, Cl2Mg, BSA and 3,3′-diaminobenzidine (DAB) in the absence or in the presence of CI and CII substrates and the tested drugs. The reaction was started by adding 0.1 mg/ml membranes homogenates to the assay buffer (25° C.) or putting into contact cell membrane microarrays with assay buffer. DAB oxidation was measured every 5-10 min spectrophotometrically at 460 and 595 nm in a Multiskan microtiter plate reader (Thermo Scientific) for 960 min in the case of homogenates
Results were expressed as means of independent data points±S.E.M. In sake of clarity, biochemical data (Complex I and II activities, superoxide production and supercomplex activity) are presented as percentage of controls with or without the application of ETC inhibitors. Data were analyzed using paired Student's t-test, one-way (followed by Tukey's post hoc test) or two-way ANOVA (followed by Bonferroni's post hoc test), as appropriate.

[2] = tested on: succinate dehydrogenase (complex II); assay: succinate dehydrogenase (complex II) activity assay, DCIP reduction; assay type: biochemical, rat; details: succinate (1 mM)
Protocol: (§1) CI and CII assays were performed based on a previous protocol with some modifications. The reaction mixture consisted of potassium phosphate buffer (0.8M K2HPO4, 0.2M KH2PO4, pH 7.4), 3 mg/ml BSA, 160 μM 2,6-dichloroindophenol (DCIP) (Sigma) together with the CI or CII substrates. The reaction was started by the addition of 0.1 mg/ml membranes homogenates (25° C.) in the absence or in the presence of decylubiquinone and ETC inhibitors. […] Control experiments were performed to exclude any interference or substrate interaction.

superoxide production = assay: Superoxide production, NBT reduction in membrane homogenates; assay type: biochemical, rat; details: NADH (0.7 mM)
Protocol: The assay medium for measurement of superoxide production consisted of a 50 mM phosphate buffer (Na2HPO4, NaH2PO4, pH 7,4), 0.5 mg/ml nitro blue tetrazolium (NBT) as a redox dye and CI or CII substrates. The reaction was started by the addition of 0.1 mg/ml membranes homogenates for 360 min (25° C.) with or without decylubiquinone and ETC inhibitors.

[3] = tested on: mitochondrial supercomplexes; assay: DAB oxidation supercomplex assay in MMP isolated from heart of cynomolgus monkey; assay type: biochemical; details: MMP from hearts of cynomolgus monkey
Protocol: as §5

[4] = tested on: NADH-ubiquinone oxidoreductase (complex I); assay: NADH-ubiquinone oxidoreductase (complex I) activity assay, DCIP reduction; assay type: biochemical, rat; details: NADH (0.7 mM)
Protocol: as §1

[5] = tested on: reactive oxygen species (ROS) such as superoxide; details: human tissue cell membrane microarrays
Protocol: (§2) Membrane homogenates isolated from human liver were suspended in buffer and they were printed (4 nL per spot, 2-5 replicates per sample) at increasing concentrations together with internal patrons onto glass slides using a non-contact microarrayer (Nano_plotter NP 2.1). The same process was used for developing cell membrane microarrays of different human tissues or rat tissues. Microarrays were stored at −20° C. until they were used. ETC activity assay using DAB and NBT as redox dyes
(§3) The assay buffer consisted of a 10 mM phosphate buffer (pH 7.4), 0.05% 3,3′-diaminobenzidine (DAB) or NBT (Nitro blue tetrazolium), 0.2 mM EGTA, 3 mg/ml BSA with or without mitochondrial ETC substrates and electron carriers, such as NADH and succinate. The reaction was started by adding 100 μl of the assay buffer to cell membrane microarrays using an incubation chamber. DAB oxidation or NBT reduction were measured every 20 min using a colorimetric high resolution scanner (Epson Perfection V750 Pro) for 24 hours.
(§4) Microphotographs were captured with the same light parameters and the collection of images was quantified with the MAPIX software (version 7.3.1). The optical densities obtained at different times were analyzed and the slope determined in the linear range was used to calculate the enzymatic rate.

electron transport chain = details: human tissue cell membrane microarrays
Protocol: as §2, §3, §4

In the case of `N#CC(C#N)=NNc1cccc(Cl)c1` [CCCP], the “effect on NADH evoked inhibition (inhibition period) of DAB oxidation, supercomplex activity” value (“effect on NADH evoked inhibition” for short) ([1]; rat heart MMP) is reported as “induces changes in both”.

With `O=[N+]([O-])c1ccc(O)c([N+](=O)[O-])c1` [DNP] the “effect on NADH evoked inhibition” value ([1]; rat heart MMP) was “does not alter DAB oxidation”.

With `NC(=O)C1=CN([C@@H]2O[C@H](COP(=O)(O)OP(=O)(O)OC[C@H]3O[C@@H](n4cnc5c(N)ncnc54)[C@H](O)[C@@H]3O)[C@@H](O)[C@H]2O)C=CC1` [NADH] the “inhibition of DAB oxidation by the substrate itself” value ([1]; rat heart MMP) was “full blockage”.

For `NC(=O)C1=CN([C@@H]2O[C@H](COP(=O)(O)OP(=O)(O)OC[C@H]3O[C@@H](n4cnc5c(N)ncnc54)[C@H](OP(=O)(O)O)[C@@H]3O)[C@@H](O)[C@H]2O)C=CC1` [NADPH], the “inhibition of DAB oxidation by the substrate itself” value ([1]; rat heart MMP) was “inhibits DAB oxidation”.

In the case of `NC(=O)c1ccc[n+]([C@@H]2O[C@H](COP(=O)([O-])OP(=O)(O)OC[C@H]3O[C@@H](n4cnc5c(N)ncnc54)[C@H](O)[C@@H]3O)[C@@H](O)[C@H]2O)c1` [NAD], the “effect on NADPH consumption rate / NADPH-inhibition period of DAB oxidation” value ([1]; rat heart MMP) is reported as “reduces it”.

With `CCCCCCCCCCCCOS(=O)(=O)[O-].[Na+]` [SDS] the “effect on NADH evoked inhibition” value ([1]; rat heart MMP) was “effects also observed”.

With `[Zn+2]` [Zinc] the “effect on NADH evoked inhibition” value ([1]; rat heart MMP) was “enhances the inhibition period evoked by NADH”.

`CCCCCCCCCCC1=C(C)C(=O)C(OC)=C(OC)C1=O` [dUQ, decylubiquinone] was tested, and the “effect of dUQ on the inhibitor's block of DCIP reduction, succinate” value ([2]; antimycin A, dUQ (50 μM)) was “blocks the effect of antimycin A”, the “effect on inhibitor mediated enhancement of NADH inhibition of DAB oxidation” value ([1]; dUQ at 10 μM, with NADH and rotenone, antimycin A or myxothiazol) was “reducing the inhibitor mediated effects; also recorded: partial blockage of the rotenone effect” and the “effect on inhibitor mediated enhancement of NADH inhibition of DAB oxidation” value ([1]; dUQ at 50 μM, with NADH and rotenone or antimycin A) was “potentiating those evoked by rotenone and antimycin A”. The “effect on DAB oxidation blockage at higher concentrations of succinate” value ([1]; rat heart MMP, higher concentrations of succinate (5 mM in FIG. 1e)) was “potentiates the DAB oxidation blockage”, the “effect on NADH evoked inhibition” value ([1]; rat heart MMP) was “slight reduction of the NADH evoked inhibition of DAB oxidation” and the “effect on NADPH consumption rate / NADPH-inhibition period of DAB oxidation” value ([1]; rat heart MMP) was “NADPH-inhibition period is enhanced”. For the same compound, the “superoxide production using NADH” value (superoxide production) was “increased in the presence of dUQ”, the “effect on NADH-dependent inhibition period of DAB oxidation” value ([3]; NADH (0.7 mM)) was “significantly reduces the NADH-dependent inhibition period of DAB oxidation” and the “partial blockage of the rotenone effect by dUQ” value ([3]; NADH with rotenone) was “not detected in monkey”. For the same compound, the “effect of dUQ on the inhibitor's block of DCIP reduction, NADH” value ([4]; myxothiazol, dUQ (50 μM)) was “does not produce the same effect with myxothiazol”.

In the case of `C[C@@H]1CC[C@@]2(OC1)O[C@H]1[C@@H](O)[C@H]3[C@@H]4CC[C@H]5C[C@@H](O[C@@H]6O[C@H](CO)[C@H](O[C@@H]7O[C@H](CO)[C@@H](O)[C@H](O[C@@H]8OC[C@@H](O)[C@H](O)[C@H]8O)[C@H]7O[C@@H]7O[C@H](CO)[C@H](O)[C@H](O[C@@H]8O[C@H](CO)[C@@H](O)[C@H](O)[C@H]8O)[C@H]7O)[C@H](O)[C@H]6O)[C@H](O)C[C@]5(C)[C@H]4CC[C@]3(C)[C@H]1[C@@H]2C` [digitonin], the “effect on NADH evoked inhibition” value ([1]; rat heart MMP) is reported as “enhancement on the NADH inhibition period”.

`CO/C(=C/C(N)=O)[C@H](C)[C@H](/C=C/c1csc(-c2csc([C@@H](C)/C=C/C=C/C(C)C)n2)n1)OC` [myxothiazol] was tested, and the “DCIP reduction with succinate as substrate” value [2] was “not myxothiazol did it”, the “effect on succinate evoked decrease in DAB oxidation” value (from here on “effect on succinate evoked decrease”) ([1]; rat heart MMP) was “promotes the blockage of the succinate-derived electron input” and the “DCIP reduction in the presence of NADH” value [4] was “efficiently blocked DCIP reduction”.

In the case of `C=C(C)[C@H]1Cc2c(ccc3c2O[C@@H]2COc4cc(OC)c(OC)cc4[C@@H]2C3=O)O1` [rotenone], the “effect on NADH evoked inhibition” value ([1]; rat heart MMP) is reported as “enhances the substrate evoked inhibition of DAB oxidation” and the “superoxide production using NADH” value (superoxide production) is reported as “induces superoxide formation”.

For `O=C(O)CCC(=O)O` [succinate], the “formation of reactive oxygen species (formazan production)” value [5] was “produces the formation of reactive oxygen species (ROS) such as superoxide”, the “ETC activity quantified using DAB as redox dye” value (electron transport chain) was “tissue specifically modulated” and the “inhibition of DAB oxidation by the substrate itself” value ([1]; rat heart MMP) was “partial inhibition”.

With antimycin A the “DCIP reduction with succinate as substrate” value [2] was “did it”, the “effect on NADH evoked inhibition” value ([1]; rat heart MMP) was “enhancement of the NADH-inhibition period” and the “effect on succinate evoked decrease” value ([1]; rat heart MMP) was “blocks the electron flux generated by CII to cyt c”. The “superoxide production using NADH” value (superoxide production) was “biphasic effect in which a maximum was observed in low micromolar range” and the “DCIP reduction in the presence of NADH” value [4] was “not antimycin A efficiently blocked DCIP reduction”.

With cytochrome c [cyt c] the “effect on NADH evoked inhibition” value ([1]; rat heart MMP) was “cannot bypass the full inhibition caused by NADH on DAB oxidation; also recorded: decreases the time period in which a specific NADH concentration induces the DAB oxidation blockage”, the “effect on NADPH consumption rate / NADPH-inhibition period of DAB oxidation” value ([1]; rat heart MMP) was “increases the NADPH consumption rate” and the “effect on succinate evoked decrease” value ([1]; rat heart MMP) was “reduces the effect promoted by CI and CII substrates on DAB oxidation”. For the same compound, the “NADH consumption rate in the presence of ETC inhibitors” value ([1]; soluble cyt c, with NADH and ETC inhibitors) was “accelerates the NADH consumption rate”.

For sodium deoxycholate, the “effect on NADH evoked inhibition” value ([1]; rat heart MMP) was “effects also observed”.
